Reference: US5770604A, “Aconitine compound and an antipyretic/analgesic/anti-inflammatory agent” (priority 1994, dated 1998)

What was measured:
[1] = cited from earlier work; for analgesic activity, in words: compared to morphine
[2] = tested on: carrageenin-induced paw edema; test: Antiinflammatory activity by the carrageenin-induced hind paw edema; assay type: in vivo, mice (Std:ddY, male); details: mouse, 30 mg/kg p.o., mean ± standard error, n = 6
Protocol: Measurement of Antiinflammatory Activity by the Carrageenin-Induced Hind Paw Edema
Std:ddY Strain male mice (20-25 g) were fasted for one day before the experiment, and were used. After test compounds shown in Table 1 was formed to a salt with tartaric acid, this salt was dissolved in sterilized and distilled water at the rate of 30 mg/10 ml to give the test compound solution. As a control, sterilized and distilled water was used. One hour after the oral administration of test compound solutions, 25 μl of λ-carrageenin suspended in 0.9% physiological saline solution (0.5 mg/25 μl) was injected s.c. under the plantar surface of the right hind paw of a mouse and 25 μl of 0.9% physiological saline solution was injected s.c. under the plantar surface of the left hind paw of the same mouse. Three hours and five hours after carrageenin injection, the […] of the paw was measured with a dial gauge calliper. To the control group, One hour after the oral administration of sterilized and distilled water at the rate of 10 ml/kg, 25 μl of λ-carrageenin (0.5 mg/25 μl) suspended in 0.9% physiological saline solution was injected s.c. under the plantar surface of the right hind paw of a mouse and 25 μl of 0.9% physiological saline solution was injected s.c. under the plantar surface of the left hind paw of the same mouse and the later operation was done in the same manner as in the test compound dosing group mentioned above. The results were described as a swelling rate (%) obtained from the following equation.
Swelling rate (%)=(R-L)×100/L
R: the thickness of the right hind paw
L: the thickness of the left hind paw

yeast-induced fever = test: Antipyretic activity on yeast-induced fever in rats; assay type: in vivo, rats (Wistar, male); details: rat, 2 hours after administration
Protocol: Measurement of Antipyretic Activity on Yeast-Induced Fever in Rats
Wistar Strain male rats (150-190 g) were fasted for one day before the experiment, and were used. Compounds of number (1) and (2) in Table 1 were formed to the tartaric acid salt and these salts were dissolved in 0.9% physiological saline solution at the rate of 10 mg/10 ml and these solution were used as test compound solution. In a control, 0.9% physiological saline solution was used. After rat rectal temperature was measured, 1 ml/100 g of body weight of 7.5% yeast/0.9% physiological saline solution was injected s.c. at dorsal position. Then, rat rectal temperature was measured at 4 hour after the injection of yeast and rats showing the increase rectal temperature by 1 degree or more were selected and used. Test compound solution was administered s.c. at 5 hours after the injection of yeast. The rectal temperature was measured 2 hours after the administration of test compound solution. The results were described with the difference between the rectal temperature before and after the administration of test compound solution.

[3] = tested on: nociceptive response (licking); test: Analgesic activity by the hot-plate method; assay type: in vivo, mice (Std:ddY, male); details: mouse, 52° C. plate, solution 10 mg/10 ml, mean ± standard error
Protocol: Measurement of Analgesic Activity by the Hot-Plate Method
Std:ddY Strain male mice (20-25 g) were fasted for one day before the experiment, and were used. After compounds shown in Table 1 were formed to the tartaric acid salts, these compounds were dissolved in 0.9% physiologocal saline solution at the rate of 10 mg/10 ml, respectively and these solution were used as test compound solution. In a control, 0.9% physiological saline solution was used. Mice were placed on a cyrindric hot plate (diameter: 22 cm, height: 11 cm) made of copper which was fixed in a water bath adjusted to 52° C. so that each animal's four paws came into contact with the plate and the time taken to show the nociceptive response (licking) as an index of pain was measured. Mice showing response latency above 25 seconds were excluded from the experiment. To prevent a burn damage of mouse tissue by heating, cutoff time of 50 seconds was defined. The results were described as an inhibition rate (%) obtained from the following equation.
Inhibition rate (%)=(A-B)×100/(50-B)
A: Response latency (seconds) after the administration of test compound solution
B: Response latency (seconds) before the administration of test compound solution

[4] = tested on: pain threshold (tail-pressure); test: Analgesic activity by the tail-pressure method (s.c.); assay type: in vivo, mice (Std:ddY, male); details: mouse, 10 mg/10 ml at 10 ml/kg s.c., 1 hour after administration, mean ± standard error
Protocol: (1) Measurement of Analgesic Activity by the Tail-Pressure Method
Std:ddY Strain male mice (20-25 g) were fasted for one day before the experiment, and were used. After test compounds shown in Table 1 was formed to a salt with tartaric acid, this salt was dissolved in 0.9% physiological saline solutions at the rate of 10 mg/10 ml to give the test compoun d solution . As a control, 0.9% physiological saline solution was used. A tail-pressure apparatus was used in this experiments. Before the administration of test compounds, the pain threshold was measured twice at intervals of 30 minutes and those mice indicating a pain threshold of 50 to 100 mmHg were selected and used. The pain threshold of each mouse was measured at 1 hour after test compound solution mentioned above was administered at 10 ml/kg, s.c. 0.9% Physiological saline solution as a control was administered at 10 ml/kg, s.c . The results were described as an inhibition rate (%) obtained from the following equation. Cutoff level of pressure was defined to be 230 mmHg for the prevention of the damage of mouse tail.
Inhibition rate (%)=(A-B)×100/(C-B)
A: Pain threshold (mmHg) after the administration of test compound solution
B: Pain threshold (mmHg) before the administration of test compound solution
C: Cutoff pressure (230 mmHg)

## COc1ccc2c(c1)c(CC(=O)O)c(C)n2C(=O)c1ccc(Cl)cc1 [indomethacin]
[1]
  analgesic activity, in words: weak analgesic activity compared to morphine
  activity in tail pressure methods and hot plate methods, in words: no remarkable activity in tail pressure methods and hot plate methods

## COCC12CN(C)C3C4C(OC)C1C3(C(OC)CC2O)C1CC2(O)C(OC)C(OC(C)=O)C4(O)C1C2OC(=O)c1ccc(Cl)cc1 (centres unmarked) [(1), 15-O-acetyl-14-O-p-chlorobenzoylmesaconine]
[2]; 3 hour
  Swelling rate: 49 ± 2%
[2]; 5 hour
  Swelling rate: 52 ± 6%
yeast-induced fever; 1 mg/kg s.c.
  Change of rectal temperature: 1.3 ± 0.1 °C
yeast-induced fever; 3 mg/kg s.c.
  Change of rectal temperature: 0.2 ± 0.1 °C
yeast-induced fever; 10 mg/kg s.c.
  Change of rectal temperature: 0.2 ± 0.2 °C
[3]
  Inhibition rate (hot-plate method): 52 ± 12%
[4]
  Inhibition rate (tail-pressure method): 48 ± 12%

## COCC12CN(C)C3C4C(OC)C1C3(C(OC)CC2OC(C)=O)C1CC2(O)C(OC)C(OC(C)=O)C4(O)C1C2OC(=O)c1ccc(Cl)cc1 (centres unmarked) [(5), 3,15-di-O-acetyl-14-O-p-chlorobenzoylmesaconine]
[2]; 3 hour
  Swelling rate: 43 ± 10%
[2]; 5 hour
  Swelling rate: 58 ± 10%
[3]
  Inhibition rate (hot-plate method): 37 ± 10%
[4]
  Inhibition rate (tail-pressure method): 40 ± 10%

## CCN1CC2(COC)C(O)CC(OC)C34C5CC6(O)C(OC)C(O)C(O)(C5C6OC(=O)c5ccc(Cl)cc5)C(C(OC)C23)C14 (centres unmarked) [14-O-p-chlorobenzoylaconine, reference compound]
[2]; 3 hour
  Swelling rate: 57 ± 8%
[2]; 5 hour
  Swelling rate: 63 ± 9%
[1]; JP, A, H5-17448
  analgesic/anti-inflammatory activity relative to earlier compounds, in words: exhibits activity superior to that of compounds having a p-chlorobenzoyloxy group bonded to the position 14 carbon atom of the aconitine chemical structure
[3]
  Inhibition rate (hot-plate method): 17 ± 7%
[4]
  Inhibition rate (tail-pressure method): 10 ± 4%

## 15-O-acetyl-8-deoxy-14-O-p-chlorobenzoylmesaconine [(7)]
[2]; 3 hour
  Swelling rate: 43 ± 8%
[2]; 5 hour
  Swelling rate: 48 ± 8%
[3]
  Inhibition rate (hot-plate method): 49 ± 11%
[4]
  Inhibition rate (tail-pressure method): 35 ± 10%

## CCCN1CC2(COC)C(O)CC(OC)C34C5CC6(O)C(OC)C(OC(C)=O)C(O)(C5C6OC(=O)c5ccc(Cl)cc5)C(C(OC)C23)C14 (centres unmarked) [(3), de-N-ethyl-N-propyl-15-O-acetyl-14-O-p-chlorobenzoylaconine]
[2]; 3 hour
  Swelling rate: 42 ± 10%
[2]; 5 hour
  Swelling rate: 54 ± 8%
[3]
  Inhibition rate (hot-plate method): 39 ± 11%
[4]
  Inhibition rate (tail-pressure method): 36 ± 10%

## CC(=O)Oc1ccccc1C(=O)O [aspirin]
[1]
  analgesic activity, in words: weak analgesic activity compared to morphine
  activity in tail pressure methods and hot plate methods, in words: no remarkable activity in tail pressure methods and hot plate methods

## 15-O-acetyl-8-deoxy-14-O-p-chlorobenzoylaconine [(8)]
[2]; 3 hour
  Swelling rate: 41 ± 5%
[2]; 5 hour
  Swelling rate: 55 ± 8%
[3]
  Inhibition rate (hot-plate method): 48 ± 8%
[4]
  Inhibition rate (tail-pressure method): 26 ± 7%

## 15-O-acetyl-8-deoxy-16-epi-14-O-p-chlorobenzoylmesaconine [(9)]
[2]; 3 hour
  Swelling rate: 44 ± 7%
[2]; 5 hour
  Swelling rate: 56 ± 7%
[3]
  Inhibition rate (hot-plate method): 46 ± 7%
[4]
  Inhibition rate (tail-pressure method): 31 ± 12%

## 15-O-acetyl-8-deoxy-16-epi-14-O-p-chlorobenzoylaconine [(10)]
[2]; 3 hour
  Swelling rate: 49 ± 6%
[2]; 5 hour
  Swelling rate: 49 ± 11%
[3]
  Inhibition rate (hot-plate method): 40 ± 10%
[4]
  Inhibition rate (tail-pressure method): 23 ± 7%

## de-N-ethyl-N-propyl-15-O-acetyl-8-deoxy-16-epi-14-O-p-chlorobenzoylaconine [(11)]
[2]; 3 hour
  Swelling rate: 50 ± 5%
[2]; 5 hour
  Swelling rate: 52 ± 9%
[3]
  Inhibition rate (hot-plate method): 34 ± 9%
[4]
  Inhibition rate (tail-pressure method): 25 ± 8%
